Experimental data: patent publication US20230121474A1, “STERILIZATION COMPOSITIONS AND METHODS FOR USING THEREOF” (Save Foods Ltd., priority 2020, published 2023)

Legend:
[1] = tested on: pre-infected lemons (inoculum of homogenized infected lemons); assay: Decay of pre-infected, pricked lemons after sanitizing treatment; assay type: in vivo
Source text: Inoculum preparation: Infected lemons were identified visually and collected under three different lemon trees on Moshav Beit Yitzhak. Ten of the more infected lemons were put into a food processor, diluted with rainwater and homogenized to uniform, grayish brown, slightly viscous liquid consistency.
They were sent to de-greening from which they were removed on 2nd day. All lemons were pricked in 6 different location on each lemon using a metal nail attached to a rubber stopper which ensured a uniform pricking depth of 1.5 mm on all the lemons. On the same day the liquidized inoculum was prepared as described above and all the lemons were dipped into the “infected” water solution for 30 seconds and allowed to dry at ambient room conditions—temperatures between […].
On the next day the lemons were treated as per description below to screen the various treatment's efficacy in controlling and preventing decay and spoilage of the pre-infected lemons. All treated lemons were divided and placed in separate cartons and allowed to dry. Disease progress of the lemons was monitored for 7 days with no visible disease symptoms. On day 8 after treatment all cartons were covered with plastic sheeting in order to increase ambient humidity to speed up disease development.

[2] = tested on: common fungal pathogen; assay: Decay of clementine infested with fungal pathogen after treatment; assay type: in vivo; settings: fruits infested at around 10^5 CFU, cold storage 9 to 21 days then room temperature
Method: Additionally, exemplary sanitizing composition (Composition B) was applied on clementine, and the fruit decay was evaluated as compared to only PAA treatment or untreated fruits. The fruits were infested with a common fungal pathogen at a concentration of around 10^5 CFU and inoculated for 16-24 hours before treatment. Following the treatments, the fruits were stored in cold storage for between 9 to 21 days and then stored in room temperature for shelf-life evaluation.

[3] = tested on: Listeria; assay: In-vitro antimicrobial activity, edible matter contaminated with bacteria dipped into test solution (CFU reduction); assay type: cell-based; settings: contact time 60 minutes
Method: The antimicrobial activity of the composition was tested in-vitro. […] The contact time was 60 minutes. The antimicrobial activity was assessed by calculating bacterial viability (e.g. reduction of the CFU).

[4] = Treatment 3: PAA 50 ppm/PAA 50 ppm, contact time 60 sec
[5] = Treatment 4: PAA 50 ppm/PAA 50 ppm, contact time 45 sec
[6] = Treatment 5: PAA 30 ppm, contact time 45 sec
[7] = acid blend 1:1:1 molar ratio with oxidizing agent, potent = at least 10^5-fold reduction of CFUs

CC(=O)OO [PAA, per-acetic acid]
% Infected Lemons 15 DAT [1, 4]: 16.7%
% Infected lemons 10 DAT [1, 4]: 0%
Infected Lemons 10 DAT [1, 4]: 0
Infected Lemons 15 DAT [1, 4]: 2
% Infected Lemons 15 DAT [1, 5]: 25%
% Infected lemons 10 DAT [1, 5]: 20%
Infected Lemons 10 DAT [1, 5]: 3
Infected Lemons 15 DAT [1, 5]: 3
% Infected Lemons 15 DAT [1, 6]: 40%
% Infected lemons 10 DAT [1, 6]: 40%
Infected Lemons 10 DAT [1, 6]: 4
Infected Lemons 15 DAT [1, 6]: 4
decay of clementine [2]: about 20%

OO [hydrogen peroxide]
minimum concentration of hydrogen peroxide within the solution [3, 7]: 200 ppm
antimicrobial activity of the oxidizing agent alone ([3]; without acid blend): Neither hydrogen peroxide, nor silver/hydrogen peroxide combination showed a significant antimicrobial activity

CCC(=O)O [propionic acid]
concentration of propionic acid within the solution sufficient for antibacterial activity [3, 7]: 100 ppm
